Measurements as given in PubChem BioAssay AID179 (DTP/NCI, 2004).
Active and inactive are the calls of the source.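 Rule for the calls: active = compounds giving half or more protection of infected cells from virus-caused growth loss, again on retest; inactive = the rest.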 Where a SMILES comes first, the peptide text is derived from it.

System: CEM cells HIV-1 protection, formazan growth assay
Test: NCI AIDS Antiviral Assay
Details: for IC50: measured here: growth of uninfected CEM cells
Summary of the method: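 Soluble formazan readout of cell growth; CEM cells ± HIV-1; 5 drug concs. ≥50% protection → retest; ≥50% again = moderately active; reproducible 100% = confirmed active.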

| SMILES | EC50 [µM] | IC50 [µM] | outcome |
| --- | --- | --- | --- |
| c1ccc(C2=Nc3ccccc3N=C3CCCC32)cc1 (configuration not stated) | > 200 | > 200 | – |
| O=C1c2ccccc2C(=O)C12CCc1ccccc12 | – | – | inactive |
| CCN(CC)C(=O)c1cccc2c1OCO2 | > 1120 | > 1120 | – |
| Cn1c(=O)cc(N=Nc2ccc(Cl)c(Cl)c2)[nH]c1=O | > 200 | 16.2 | – |
| CC1=C(C(=O)NCc2ccccc2)C(/C=C/c2ccccc2)C(C(=O)NCc2ccccc2)=C(C)N1 | – | – | inactive |
| CC(C)(C)C1=CC(=C2C(=O)C(=O)c3ccccc3C2=O)C=C(C(C)(C)C)C1=O | > 6.92 | > 6.92 | – |
| COC(=O)C1C=CCON2CCc3c(n(S(=O)(=O)c4ccccc4)c4ccccc34)C12 (configuration not stated) | > 22.9 | > 22.9 | – |
| C=C=[CH][Sn]([c]1ccccc1)([c]1ccccc1)[c]1ccccc1 | > 35.5 | 0.676 | – |
| CC(NC(=O)OC(C)(C)C)C(=O)NC(Cc1ccccc1)C(=O)NCC(=O)ON=C1CCCC1 (configuration not stated) | > 200 | 25.7 | – |
| CCOC(=O)N1CCN(Cc2cc(=O)n3cc(C)ccc3n2)CC1 | > 200 | > 200 | – |
| CCCCCCCCCCCCCCCC=C(c1cc(Br)cc(C(=O)O)c1OC)c1cc(Br)cc(C(=O)O)c1OC | > 1070 | 24 | – |
| O=C(O)CCC1CCc2cccc3oc(C(=O)O)c1c23 (configuration not stated) | – | – | inactive |
| C=C1CC(C)(COc2ccc3c(C)c(C)c(=O)oc3c2C)OC1=O (configuration not stated) | > 2 | 0.891 | – |
| Cn1cnc([N+](=O)[O-])c1Sc1ncccn1 | > 1050 | 38 | – |
| O=S(O)CCCCSSSCCCCS(=O)O | > 200 | 2.69 | – |
| Cc1cccc2c1C(=O)[C@@](C)([C@]1(C)Nc3cccc(C)c3C1=O)N2 | > 200 | > 200 | – |
| CSC(SC)=C(C(=O)c1ccc(Cl)cc1)n1c(=O)sc2cc(Br)ccc21 | > 200 | 12.3 | – |
| COc1c2occc2c(N=Cc2ccncc2)c2ccc(=O)oc12 | > 39.8 | > 39.8 | – |
| C/C=C/CCC1CCCCN(C(=O)OC(C)(C)C)C1OCC (configuration not stated) | > 60.3 | > 60.3 | – |
| Cc1ccc(C(=O)Nc2ccc(CP(=O)(O)O)cc2CP(=O)(O)O)cc1NC(=O)c1cccc(N)c1 | > 200 | > 200 | – |
| O=C(O)c1ccc2c(c1)C(=O)N(c1ccc(Oc3ccc(N4C(=O)c5ccc(C(=O)O)cc5C4=O)cc3)cc1)C2=O | – | – | inactive |
| COC(=O)c1c(CC(=O)O)oc2c1CCCC2 | – | – | inactive |

| SMILES | EC50 [µM] | IC50 [µM] | outcome |
| --- | --- | --- | --- |
| O=C1O[C@@H](c2ccccc2)C[C@H]1CN1CCOCC1 | – | – | inactive |
| CCOC(=O)NC(Nc1ccc(F)c(F)c1)(C(=O)OCC)C(F)(F)F (configuration not stated) | > 200 | > 200 | – |
| c1ccc2c(C3NCCc4[nH]cnc43)cccc2c1 (configuration not stated) | > 525 | > 525 | – |
| Cn1ccnc1C(c1nccn1C)C(C)(C)[N+](=O)[O-] | > 339 | > 339 | – |
| O=S(=O)(c1cc(Cl)ccc1Cl)N1CCN(S(=O)(=O)c2cc(Cl)ccc2Cl)CC1 | > 200 | > 200 | – |
| Cn1c(NS(=O)(=O)c2ccccc2)nc2ccccc21 | > 200 | > 200 | – |
| c1csc(C(NC2=NCCO2)C2CC2)c1 (configuration not stated) | > 200 | 166 | – |
| COc1ccc(NC(=O)C(=O)c2c(O)c3ccc(O)cc3oc2=O)c([N+](=O)[O-])c1 | > 447 | 229 | – |
| NC(=O)C(c1ccccc1)N1CCCC1 (configuration not stated) | > 200 | > 200 | – |
| CN1CCN(C(=S)N(C(=O)c2ccco2)c2ccccc2)CC1 | > 759 | > 759 | – |
| CNC(=O)NCCCCC(NC(=O)OCc1ccccc1)C(=O)OCc1ccccc1 (configuration not stated) | > 83.2 | 60.3 | – |
| Cc1ccccc1N=Nc1ccc(N/N=C2/CCCNC2=O)c(C)c1 | > 200 | 182 | – |
| Cc1cc(CO)c(O)c(CNCc2cc(C)cc(CO)c2O)c1 | > 200 | 8.71 | – |
| CC(C)C1CC(CO)(CNc2nc(N)nc(Cl)c2C=O)C1 (configuration not stated) | > 200 | 1.78 | – |
| COC(=O)[C@@H]1c2[nH]c3ccccc3c2C[C@@H]2c3ccccc3NC(=O)[C@@H]21 | > 42.7 | > 42.7 | – |
| CCN(CC)CC(=O)NC1c2ccccc2Oc2c(C)cccc21 (configuration not stated) | > 288 | 145 | – |
| COc1ccc(CSCc2cc(OC)c(OC)c(OC)c2)cc1 | > 200 | 25.7 | – |
| COc1ccc(P2(=S)OC(C)(C)C(C)(C)O2)cc1 | > 200 | > 200 | – |
| CC1(C)C2CC(=O)C1(C)C(OCc1ccccc1)C2 (configuration not stated) | – | – | inactive |
| OC1CN2CC[C@H](O)C2C(O)[C@@H]1O (some centres not stated) | 61.7 | 1320 | – |
| CC(=O)Nc1ccc(NS(=O)(=O)c2ccc3nc(C)n(NS(=O)(=O)c4ccc(NC(C)=O)cc4)c(=O)c3c2)cc1 | > 200 | > 200 | – |
| C=CCC1CCN(C=C)C1=O (configuration not stated) | > 1660 | 1580 | – |

| SMILES | EC50 [µM] | IC50 [µM] | outcome |
| --- | --- | --- | --- |
| CC1(C)OCC(C(O)C2OC(C)(C)OC2C=O)O1 (configuration not stated) | > 200 | > 200 | – |
| COc1c2occc2c(OC)c2c(=O)c(S(=O)(=O)NC(=O)Nc3ccc(Cl)cc3)coc12 | > 200 | 97.7 | – |
| Cc1ccc(S(=O)(=O)N/N=C2\C=C[C@]3(CC2)C(=O)N(C)c2ccccc23)cc1 | > 200 | 102 | – |
| COc1ccc(NC(=O)C(=O)NO)c(OC)c1 | > 537 | 234 | – |
| NC(CO)C(=O)NC(CO)C(=O)NC(Cc1ccc(O)cc1)C(=O)NC(CO)C(=O)NC(CO)C(=O)O (configuration not stated) (H-SSYSS-OH; configuration not given here) | > 93.3 | > 93.3 | – |
| O=S(=O)(O)NCC1OC2OC3C(CNS(=O)(=O)O)OC(OC4C(CNS(=O)(=O)O)OC(OC5C(CNS(=O)(=O)O)OC(OC6C(CNS(=O)(=O)O)OC(OC7C(CNS(=O)(=O)O)OC(OC8C(CNS(=O)(=O)O)OC(OC1C(OS(=O)(=O)O)C2OS(=O)(=O)O)C(OS(=O)(=O)O)C8OS(=O)(=O)O)C(OS(=O)(=O)O)C7OS(=O)(=O)O)C(OS(=O)(=O)O)C6OS(=O)(=O)O)C(OS(=O)(=O)O)C5OS(=O)(=O)O)C(OS(=O)(=O)O)C4OS(=O)(=O)O)C(OS(=O)(=O)O)C3OS(=O)(=O)O (configuration not stated) | > 50.1 | > 50.1 | – |
| CN(N=O)C(N)=NC(=O)c1ccccc1 | > 200 | 141 | – |
| CCCCCCC[CH2][Sn]([CH2]CCCCCCC)([O]c1cccc2cccnc12)[O]c1cccc2cccnc12 | > 21.4 | > 21.4 | – |
| C=CC(C)(C)C12CC3C(=O)N/C(=C\c4cnc[nH]4)C(=O)N3C1Nc1ccccc12 (configuration not stated) | > 200 | 91.2 | – |
| CC1CC(=O)c2c(cc3c(-c4c(O)cc(O)c5c(O)c6c(cc45)OC(C)CC6=O)c(O)cc(O)c3c2O)O1 (configuration not stated) | – | – | inactive |
| O=c1cc2ccc(Cl)cc2n[nH]1 | > 85.1 | > 85.1 | – |
| COC(=O)c1ccc(NCc2c(O)ccc(O)c2Br)cc1Cl | > 14.8 | 6.46 | – |
| NC(N)=NS(=O)(=O)c1ccc(NC(=O)c2cccc3cc4ccccc4nc23)cc1 | > 53.7 | 16.2 | – |
| N=C1SCC(=O)N1CCN1C(=N)SCC1=O | > 79.4 | > 79.4 | – |
| CCCC(=O)n1[nH]c(=O)n(C(C)(C)C)c1=O | > 200 | > 200 | – |
| COC(=O)C1Cc2c([nH]c3ccccc23)C(c2ccccc2O)N1 (configuration not stated) | – | – | inactive |
| CCN(CC)CCOC(=O)C1(CCC(C)C)CCCCC1 | > 200 | 123 | – |
| CNc1nc(=O)c(C#N)c(-c2ccc(C)cc2)s1 | 166 | > 200 | – |
| c1ccc(-c2csc3c2-n2cccc2C3N2CCCC2)cc1 (configuration not stated) | > 200 | 13.5 | – |
| NC1C(O)C(O)C(O)C(O)C1O (configuration not stated) | > 7240 | > 7240 | – |
| Cc1ccc(C(CC(=O)C(C)(C)CN2CCCCC2)SCCS(=O)(=O)O)cc1 (configuration not stated) | > 200 | 3.63 | – |
| CCCCNC(=O)C1=C(C)NC(C)=C(C(=O)NCCCC)C1 | > 200 | > 200 | – |

| SMILES | EC50 [µM] | IC50 [µM] | outcome |
| --- | --- | --- | --- |
| CCOC(=O)/C=C/c1cccc(F)c1 | > 200 | > 200 | – |
| Cc1sc2ccc3ccccc3c2[n+]1C | > 200 | 45.7 | – |
| COC(=O)c1nn(C(=N)c2ccc(Cl)cc2)c2c1CCCCC2 | > 380 | > 380 | – |
| COc1ccc(-n2[nH]nc(C(N)=O)c2=O)cc1 | > 200 | > 200 | – |
| O=C1C(c2ccccc2)CS(=O)(=O)CC1c1ccccc1 (configuration not stated) | > 120 | 36.3 | – |
| CC1Cc2c(cc(N)nc2Br)NC1=O (configuration not stated) | > 200 | 95.5 | – |
| C[N+](C)(C)CC(=O)N/N=C(/CC(=O)CC(C1=C(O)c2ccccc2OC1)c1ccccc1)C(=O)Nc1cccc(Cl)c1 (configuration not stated) | > 151 | > 151 | – |
| O=c1c(CCO)c(C2CC2)n2n1CCCC2 | > 1120 | > 200 | – |
| CCCC(O)[C@@]1(CC)CC(C)C(O)(C2(C)C[C@H](C)[C@@H](C(CC)C(=O)C(C)[C@@H](O)[C@H](C)C3OC(O)(C(CC)C(=O)O)[C@@H](C)C(O)C3CC)O2)O1 (some centres not stated) | 0.138 | 1.78 | – |
| CS/C(=C(\S)c1ccccc1)c1ccccc1 | – | – | inactive |
| COc1cc(C2SC(N)=Nc3c2c(C)nn3C(=O)c2ccccc2O)ccc1O (configuration not stated) | > 2 | 0.0977 | – |
| NC(=O)C12CC3CC(CC(Br)(C3)C1)C2 | > 977 | 891 | – |
| C=C1C2CCCC1C1(S(C)(=O)=O)CCCCC21O (configuration not stated) | – | – | inactive |
| NCCCNCCCCN1CCOC1=O | > 200 | 50.1 | – |
| CN1C(=O)c2cccc3c([N+](=O)[O-])ccc(c23)C1=O | > 20.4 | 7.76 | – |
| COC(=O)C1CCCN1C(=O)OC(C)(C)C (configuration not stated) | 57.5 | > 200 | – |
| CC/C(=C(\CC)c1ccc(OCCCN2CCCCC2C)cc1)c1ccc(OCCCN2CCCCC2C)cc1 (configuration not stated) | > 20 | 2.29 | – |
| Cc1nc(Nc2ccccc2Cl)sc1C(=O)CC(=O)C(N)=O | > 200 | > 200 | – |
| COc1cc(C2(C)SCCCS2)c(I)c(OC)c1OC | > 234 | 6.17 | – |
| Cn1c(=O)c2nc3c4ccccc4c(=O)n(C)c3nc2n(C)c1=O | – | – | inactive |
| O=C(Nc1cc(C(F)(F)F)ccc1Cl)C(=O)C(C(=O)c1ccc2ccccc2c1)C1OC(=O)c2ccccc21 (configuration not stated) | > 33.9 | 18.6 | – |
